Values of other authors, collected in paper doi:10.1101/2023.05.15.540887, “Comparative analysis of drug-like EP300/CREBBP acetyltransferase inhibitors” (bioRxiv, 2023).

How the values were obtained:
Set-up in all cases: method as in ref 29 (a number printed in a supplementary file, which may have a reference list of its own: not looked up in the article's list)
SNB-19 = settings: CNS SNB-19; highest log conc -4.0; NCI-60 screen data; cited from earlier work
HCC-2998 = settings: Colon HCC-2998; highest log conc -4.0; NCI-60 screen data; cited from earlier work
ACHN = settings: Renal ACHN; highest log conc -4.0; NCI-60 screen data; cited from earlier work
NCI-H226 = settings: Non-SmallCellLung NCI-H226; highest log conc -4.0; NCI-60 screen data; cited from earlier work
CCRF-CEM = settings: Leukemia CCRF-CEM; highest log conc -4.0; NCI-60 screen data; cited from earlier work
SK-OV-3 = settings: Ovarian SK-OV-3; highest log conc -4.0; NCI-60 screen data; cited from earlier work
OVCAR-5 = settings: Ovarian OVCAR-5; highest log conc -4.0; NCI-60 screen data; cited from earlier work
NCI/ADR-RES = settings: Ovarian NCI/ADR-RES; highest log conc -4.0; NCI-60 screen data; cited from earlier work
HOP-62 = settings: Non-SmallCellLung HOP-62; highest log conc -4.0; NCI-60 screen data; cited from earlier work
MALME-3M = settings: Melanoma MALME-3M; highest log conc -4.0; NCI-60 screen data; cited from earlier work
U251 = settings: CNS U251; highest log conc -4.0; NCI-60 screen data; cited from earlier work
HS578T = settings: Breast HS578T; highest log conc -4.0; NCI-60 screen data; cited from earlier work
MOLT-4 = settings: Leukemia MOLT-4; highest log conc -4.0; NCI-60 screen data; cited from earlier work
HCT-116 = settings: Colon HCT-116; highest log conc -4.0; NCI-60 screen data; cited from earlier work
COLO205 = settings: Colon COLO205; highest log conc -4.0; NCI-60 screen data; cited from earlier work
KM12 = settings: Colon KM12; highest log conc -4.0; NCI-60 screen data; cited from earlier work
HOP-92 = settings: Non-SmallCellLung HOP-92; highest log conc -4.0; NCI-60 screen data; cited from earlier work
SF-539 = settings: CNS SF-539; highest log conc -4.0; NCI-60 screen data; cited from earlier work
BT-549 = settings: Breast BT-549; highest log conc -4.0; NCI-60 screen data; cited from earlier work
MDA-MB-231/ATCC = settings: Breast MDA-MB-231/ATCC; highest log conc -4.0; NCI-60 screen data; cited from earlier work
SF-268 = settings: CNS SF-268; highest log conc -4.0; NCI-60 screen data; cited from earlier work

SMILES | GI50 AVGDATA (SNB-19) | GI50 AVGDATA (HCC-2998) | GI50 AVGDATA (ACHN) | GI50 AVGDATA (NCI-H226) | GI50 AVGDATA (CCRF-CEM) | GI50 AVGDATA (SK-OV-3) | GI50 AVGDATA (OVCAR-5) | GI50 AVGDATA (NCI/ADR-RES) | GI50 AVGDATA (HOP-62) | GI50 AVGDATA (MALME-3M) | GI50 AVGDATA (U251) | GI50 AVGDATA (HS578T) | GI50 AVGDATA (MOLT-4) | GI50 AVGDATA (HCT-116) | GI50 AVGDATA (COLO205) | GI50 AVGDATA (KM12) | GI50 AVGDATA (HOP-92) | GI50 AVGDATA (SF-539) | GI50 AVGDATA (BT-549) | GI50 AVGDATA (MDA-MB-231/ATCC) | further results
COC(=O)N1c2ccc3c(nc(Cc4ccccc4)n3[C@H]3CCC[C@H](C(=O)O)C3)c2CC[C@@H]1C [FT-6876] | -4.9 | -5.08 | -4.77 | -4.85 | -5.18 | -4.77 | -4.51 | -4.19 | -4.95 | -5.21 | -4.77 | -5.49 | -4.84 | -4.75 | -5.31 | -4.79 | -5.79 | -4.8 | -4.31 | -4.8 | GI50 AVGDATA (SF-268): -4.56
Cc1sc2c(c1C)C(c1ccc(Cl)cc1)=N[C@@H](CC(=O)OC(C)(C)C)c1nnc(C)n1-2 [JQ-1] | -6.38 | -6.54 | -6.3 | -4.99 | -6.11 | -6.49 | -4.98 | -6.4 | -6.92 | -5.32 | -5.91 | -7.25 | -5.74 | -6.51 | -6.84 | -6.02 | -7.74 | -6.34 | -5.51 | -6.52 | GI50 AVGDATA (SF-268): -5.33
CO[C@H]1CC[C@H](n2c([C@@H]3CCCC(=O)N3c3ccc(F)c(F)c3)nc3cc(-c4c(C)noc4C)ccc32)CC1 [inobrodib] | -5.03 | -5.38 | -5.32 | -5.37 | -5.33 | -5.39 | -4.77 | -4.87 | -5.35 | -5.76 | -4.99 | -5.68 | -4.77 | -5 | -5.67 | -4.86 | -5.69 | -5.01 | -4.99 | -5.07 | GI50 AVGDATA (SF-268): -4.83
